Experimental data taken from patent US20190240225A1, “COMBINATION OF A BCL-2 INHIBITOR AND A MCL-1 INHIBITOR, USES AND PHARMACEUTICAL COMPOSITIONS THEREOF” (LES LABORATOIRES SERVIER, priority 2016, published 2019).
Read-outs that look alike come from different tables or passages of the source.

How the values were obtained:
primary AML blasts = test: Cell viability (sytox blue, flow cytometry) of primary AML patient samples, LC50; type: cell-based, human; settings: 54 primary AML samples; 48 h; RPMI/15% FCS; combination at 1:1
Protocol: Primary AML patient samples: Bone marrow or peripheral blood samples from patients with AML were collected after informed consent in accordance with guidelines approved by The Alfred Hospital Human research ethics committees. Mononuclear cells were isolated by Ficoll-Paque (GE Healthcare, VIC, Aus) density-gradient centrifugation, followed by red cell depletion in ammonium chloride (NH4Cl) lysis buffer at 37° C. for 10 minutes. Cells were then re-suspended in phosphate-buffered saline containing 2% Fetal Bovine serum (Sigma, NSW, Aus). Mononuclear cells were then suspended in RPMI-1640 (GIBCO VIC, Aus) medium containing penicillin and streptomycin (GIBCO) and heat inactivated fetal bovine serum 15% (Sigma).
Cell Viability: Freshly purified mononuclear cells from AML patient samples were adjusted to a concentration of 2.5×10^5/ml and 100 μL of cells aliquoted per well into 96 well plates (Sigma). […] For combinations assays, drugs were added at a 1:1 ratio from 1 nM to 10 μM and incubated at 37° C. 5% CO2. Cells were then stained with sytox blue nucleic acid stain (Invitrogen, VIC, Aus) and fluorescence measured by flow cytometric analysis using the LSR-II Fortessa (Becton Dickinson, NSW, Aus). FACSDiva software was used for data collection, and FlowJo software for analysis. Blast cells were gated using forward and side scatter properties. […]

MV4;11 AML cells = test: Luciferase MV4;11 AML engraftment model in NSG mice; type: in vivo, mouse; settings: MV4;11-luciferase, Compound 1, HCl 100 mg/kg oral daily, Compound 2 25 mg/kg IV twice weekly, 4 weeks
Protocol: In vivo experimentation AML engraftment: Animal studies were performed under the institutional guidelines approved by the Alfred Medical Research and Education Precinct Animal Ethics Committee, MV4; 11 cells transduced with the luciferase reporter (pLUC2) were intravenously injected at 1×10^5 cells into irradiated (100 Rad) non-obese diabetic/severe combined immunodeficient (NOD/SCID/IL2rγnull) mice as previously described (Jin et al., Cell Stem Cell 2 Jul. 2009, Volume 5, Issue 1, Pages 31-42). Engraftment was measured at day 7 by quantifying the percentage of hCD45+ cells in the PB by flow cytometry and by IVIS imaging of bioluminescent MV4; 11 cells. At day 10, mice received daily oral gavage of Compound 1, HCl (200 μL 100mg/kg—dosage expressed as the free base) dissolved in PEG400 (Sigma), absolute ethanol (Sigma) and distilled H20 40:10:60 or Compound 2 (200 μL 25 mg/kg) twice weekly dissolved in 50% 2-hydroxypropyl)-β-cyclodextrin (Sigma) and 50% 50mM HCl or the drug combination or vehicle, over 4 weeks. Blood counts were determined using a hematology analyzer (BioRad, Gladesville, NSW). […]
To verify the in vivo activity of this approach, luciferase expressing MV4; 11 AML cells were engrafted into NSG mice and treated with Compound 1 (HCl salt) or Compound 2 alone, or in combination and tumour burden assessed after 14 and 21 days of therapy (FIG. 2B). […]

OPM2 = test: MTT cell viability assay, myeloma cell line; type: cell-based, human
Protocol: (§1) Cell lines: Human myeloma cell lines (HMCLs) were derived from primary myeloma cells cultured in RPMI 1640 medium supplemented with 5% fetal calf serum from and 3 ng/mL recombinant IL-6 for IL-6 dependent cell lines. HMCLs are representative of phenotypic and genomic heterogeneity and the variability in patient's response to therapy.
(§2) MTT assay: Cell viability is measured using MTT (3-(4,5-dimethylthiazol-2-yl)-2,5-diphenyltetrazolium bromide) colorimetric survival assay. Cells are incubated with compounds in 96-well plates containing a final volume of 100 μl/well time. (2R)-2-{[(5Sa)-5-{3-chloro-2-methyl-4-[2-(4-methylpiperazin-1-yl)ethoxy]phenyl}-6-(5-fluorofuran-2-yl)thieno[2,3-d]pyrimidin-4-yl]oxy}-3-(2-{[1-(2,2,2-trifluoroethyl)-1H-pyrazol-5-yl]methoxy}phenyl)propanoic acid (Compound 2) is used at 9 different concentrations accordingly to single agent sensitivity. N-(4-hydroxyphenyl)-3-{6-[((3S)-3-(4-morpholinylmethyl)-3,4-dihydro-2(1H)-isoquinolinyl)carbonyl]-1,3-benzodioxol-5-yl}-N-phenyl-5,6,7,8-tetrahydro-1-indolizine carboxamide hydrochloride (Compound 1, HCl) is used at a fixed dose—1 μM. At the end of each treatment, cells are incubated with 1 mg/mL MTT (50 μl MTT solution 2.5 mg/ml for each well) at 37° C. for 3 hours allowing the MTT to be metabolized. Lysis buffer (100 μl Lysis buffer: DMF (2:3)/SDS (1:3)) is added into each well to dissolve formazan cristals and after 18 h of incubation, absorbance in viable cells is measured at 570 nm using a spectrophotometer.
(§3) The sensitivity of 27 human multiple myeloma cell lines to Compound 1, Compound 2 or to Compound 2 in the presence of 1 μM of Compound 1 was analyzed by using MTT cell viability assay. 50% inhibitory concentrations (IC50, in nM) were determined.

NAN9 = test: MTT cell viability assay, myeloma cell line; type: cell-based, human
Protocol: as §1, §2, §3

JJN3 = test: MTT cell viability assay, myeloma cell line; type: cell-based, human
Protocol: as §1, §2, §3

MM1S = test: MTT cell viability assay, myeloma cell line; type: cell-based, human
Protocol: as §1, §2, §3

BCN = test: MTT cell viability assay, myeloma cell line; type: cell-based, human
Protocol: as §1, §2, §3

KMS11 = test: MTT cell viability assay, myeloma cell line; type: cell-based, human
Protocol: as §1, §2, §3

AMO1 = test: MTT cell viability assay, myeloma cell line; type: cell-based, human
Protocol: as §1, §2, §3

RPMI8226 = test: MTT cell viability assay, myeloma cell line; type: cell-based, human
Protocol: as §1, §2, §3

XG1 = test: MTT cell viability assay, myeloma cell line; type: cell-based, human
Protocol: as §1, §2, §3

L363 = test: MTT cell viability assay, myeloma cell line; type: cell-based, human
Protocol: as §1, §2, §3

LP1 = test: MTT cell viability assay, myeloma cell line; type: cell-based, human
Protocol: as §1, §2, §3

XG6 = test: MTT cell viability assay, myeloma cell line; type: cell-based, human
Protocol: as §1, §2, §3

NCI-H929 = test: MTT cell viability assay, myeloma cell line; type: cell-based, human
Protocol: as §1, §2, §3

NAN6 = test: MTT cell viability assay, myeloma cell line; type: cell-based, human
Protocol: as §1, §2, §3

XG7 = test: MTT cell viability assay, myeloma cell line; type: cell-based, human
Protocol: as §1, §2, §3

XG3 = test: MTT cell viability assay, myeloma cell line; type: cell-based, human
Protocol: as §1, §2, §3

NAN3 = test: MTT cell viability assay, myeloma cell line; type: cell-based, human; settings: single agent
Protocol: as §1, §2, §3

KMS12BM = test: MTT cell viability assay, myeloma cell line; type: cell-based, human
Protocol: as §1, §2, §3

XG2 = test: MTT cell viability assay, myeloma cell line; type: cell-based, human
Protocol: as §1, §2, §3

XG11 = test: MTT cell viability assay, myeloma cell line; type: cell-based, human
Protocol: as §1, §2, §3

NAN1 = test: MTT cell viability assay, myeloma cell line; type: cell-based, human
Protocol: as §1, §2, §3

U266 = test: MTT cell viability assay, myeloma cell line; type: cell-based, human
Protocol: as §1, §2, §3

ANBL6 = test: MTT cell viability assay, myeloma cell line; type: cell-based, human
Protocol: as §1, §2, §3

JIM3 = test: MTT cell viability assay, myeloma cell line; type: cell-based, human
Protocol: as §1, §2, §3

KMM1 = test: MTT cell viability assay, myeloma cell line; type: cell-based, human
Protocol: as §1, §2, §3

NAN8 = test: MTT cell viability assay, myeloma cell line; type: cell-based, human
Protocol: as §1, §2, §3

SBN = test: MTT cell viability assay, myeloma cell line; type: cell-based, human
Protocol: as §1, §2, §3

[1] = + 1 μM Compound 1, HCl, read-out: IC50 of Compound 2 in the presence of 1 μM of Compound 1, HCl

SMILES: Cc1c(-c2c(-c3ccc(F)o3)sc3ncnc(O[C@H](Cc4ccccc4OCc4ccnn4CC(F)(F)F)C(=O)O)c23)ccc(OCCN2CCN(C)CC2)c1Cl [Compound 2, (2R)-2-{[(5Sa)-5-{3-chloro-2-methyl-4-[2-(4-methylpiperazin-1-yl)ethoxy]phenyl}-6-(5-fluorofuran-2-yl)thieno[2,3-d]pyrimidin-4-yl]oxy}-3-(2-{[1-(2,2,2-trifluoroethyl)-1H-pyrazol-5-yl]methoxy}phenyl)propanoic acid]
- proportion of primary AML samples highly sensitive (LC50<10 nM) (primary AML blasts): Approximately 20%
- in vivo anti-leukaemic activity (luciferase tumour burden, survival) (MV4;11 AML cells): reduced luciferase bulk
- IC50 (OPM2; [1]): 1.2 nM
- IC50 (OPM2; single agent, read-out: IC50): 9.4 nM
- IC50 (NAN9; [1]): 1.1 nM
- IC50 (NAN9; single agent, read-out: IC50): 9.7 nM
- IC50 (JJN3; [1]): 2.4 nM
- IC50 (JJN3; single agent, read-out: IC50): 15.6 nM
- IC50 (MM1S; [1]): 23 nM
- IC50 (MM1S; single agent, read-out: IC50): 138 nM
- IC50 (BCN; [1]): 59.3 nM
- IC50 (BCN; single agent, read-out: IC50): 1110 nM
- IC50 (KMS11; [1]): 3.9 nM
- IC50 (KMS11; single agent, read-out: IC50): 44.1 nM
- IC50 (AMO1; [1]): 0.2 nM
- IC50 (AMO1; single agent, read-out: IC50): 0.5 nM
- IC50 (RPMI8226; [1]): 3 nM
- IC50 (RPMI8226; single agent, read-out: IC50): 27.4 nM
- IC50 (XG1; [1]): 0.2 nM
- IC50 (XG1; single agent, read-out: IC50): 5.9 nM
- IC50 (L363; [1]): 3.4 nM
- IC50 (L363; single agent, read-out: IC50): 7.6 nM
- IC50 (LP1; [1]): 2.9 nM
- IC50 (LP1; single agent, read-out: IC50): 158 nM
- IC50 (XG6; [1]): 0.5 nM
- IC50 (XG6; single agent, read-out: IC50): 19.2 nM
- IC50 (NCI-H929; [1]): 1 nM
- IC50 (NCI-H929; single agent, read-out: IC50): 2.3 nM
- IC50 (NAN6; [1]): 1.8 nM
- IC50 (NAN6; single agent, read-out: IC50): 7.1 nM
- IC50 (XG7; [1]): 8 nM
- IC50 (XG7; single agent, read-out: IC50): 16.3 nM
- IC50 (XG3; [1]): 1.3 nM
- IC50 (XG3; single agent, read-out: IC50): 6.1 nM
- IC50 (NAN3): 1.5 nM
- IC50 (KMS12BM; [1]): 0.03 nM
- IC50 (KMS12BM; single agent, read-out: IC50): 44.1 nM
- IC50 (XG2; [1]): 2.7 nM
- IC50 (XG2; single agent, read-out: IC50): 6.4 nM
- IC50 (XG11; [1]): 8.3 nM
- IC50 (XG11; single agent, read-out: IC50): 375 nM
- IC50 (NAN1; [1]): 1.4 nM
- IC50 (NAN1; single agent, read-out: IC50): 5.7 nM
- IC50 (U266; [1]): 14.9 nM
- IC50 (U266; single agent, read-out: IC50): 170 nM
- IC50 (ANBL6; [1]): 20.8 nM
- IC50 (ANBL6; single agent, read-out: IC50): 79.5 nM
- IC50 (JIM3; [1]): 25.9 nM
- IC50 (JIM3; single agent, read-out: IC50): 56.3 nM
- IC50 (KMM1; [1]): 8.6 nM
- IC50 (KMM1; single agent, read-out: IC50): 57.8 nM
- IC50 (NAN8; [1]): 32.5 nM
- IC50 (NAN8; single agent, read-out: IC50): 75.4 nM
- IC50 (SBN; [1]): 14.6 nM
- IC50 (SBN; single agent, read-out: IC50): 221 nM
